Columns and labels:
[1] = system: APC-WT MC38 orthotopic tumors; assay: Survival of C57BL/6J mice orthotopically implanted with APC-WT MC38 cells; format: in vivo, mouse; settings: 100 mg/kg twice a day by oral gavage from day 5 post-injection
Text: (§1) Induction of shTDO2 is indicated by GFP (highlighted with arrows). X63 magnification. […] Dox food was provided at day 5 after injection to induced TDO2 knockdown in vivo (n=5 per group). […] Scale bar, 100μm. […] Dox food was applied at day 5 post-orthotopic injection to induce TDO2 knockdown in vivo (ishTDO2 APC-WT MC38, n=5, ishTDO2 APC-WT+Dox MC38 and ishTDO2 APC-KO MC38, n=6, ishTDO2 APC-KO MC38+Dox, n=7). n.s.P>0.05, **P<0.01, ***P<0.001. two-tailed t-test. […] Dox food was applied at day 5 post-orthotopic injection to induce TDO2 knockdown in vivo (n=8 per group). n.s.P>0.05, **P<0.01, ***P<0.001. two-tailed t-test. FIGS. 4N and 4O show survival curves of C57BL/6J mice orthotopically implanted with APC-WT and APC-KO MC38 cell lines ([…]) treated with TDO2 inhibitor (FIG. 4N) or Epacadostat (FIG. 4O). TDO2 inhibitor and Epacadostat treatment (100 mg/kg) was initiated at day 5 post-injection twice a day by oral gavage. n.s.P>0.05, *P<0.05, ***P<0.001. Log-rank (Mantel-Cox) test. […] Scale bars, ×10 (200 μm).
(§2) The inventors synthesized the TDO2 inhibitor PF06845102/EOS200809 (“TDO2i”), which has been documented to inhibit TDO2 activity in vivo (Schramme et al., Cancer Immunol Res. 2020 January; 8(1):32-45; incorporated herein by reference in its entirety) and administrated the drug by oral gavage to mice bearing APC-WT or APC-KO MC38 orthotopic tumors. […]

[2] = system: APC-KO MC38 orthotopic tumors; assay: Survival of C57BL/6J mice orthotopically implanted with APC-KO MC38 cells; format: in vivo, mouse; settings: 100 mg/kg twice a day by oral gavage from day 5 post-injection
Text: as §1, §2

[3] = system: APC intact cells including CCD-841-CoN cells; assay: Crystal violet staining after 680C91 treatment, APC intact cells; format: cell-based, human; settings: 680C91 dose-dependent, 48 hr, normal colon epithelial cells included
[4] = system: APC-KO MC38 cells; assay: Cell death (caspase-3 assay, colony formation) with 680C91 alone and 680C91/Kyn; format: cell-based, mouse
Experimental: (§3) Normalized enrichment score (NES) and nominal P value are shown. […] The P value and R-square value are shown. […] Representative images of triplicate studies are shown. Scale bar, 100 μm. […] Dox food was applied at day 5 post-orthotopic injection to induce TDO2 knockdown in vivo (shControl, n=7, Dox, n=8, shAhR #1, #2, n=7). ***P<0.001. two-tailed t-test.
(§4) To assess the roles of TDO2-Kyn-AhR axis in cancer relevant processes, colony formation assays were performed using the APC-KO MC38 ishTDO2 cell lines and APC-KO MC38 shAhR cell lines. […] Thus, the TDO2-Kyn-Ahr axis supports APC-null cancer cell proliferation and survival and its tumorigenic potential.
(§5) Cell lysates were prepared with RIPA lysis buffer (Roche) with protease inhibitor […] Immunoblotting was performed following standard protocol. Antibodies were purchased from the indicated companies.
(§6) Colorectal cancer cell proliferation in vitro was assayed through colony formation. 1×10^3 cells were seeded in each well of 6-well plates and cultured for 5-7 days. At the end point, cells were fixed and stained with 0.5% crystal violet in 25% methanol for 1 hr. These studies were performed in triplicate.

[5] = system: APC-WT and APC-KO MC38 cell lines; assay: Crystal violet staining of APC-WT and APC-KO MC38 cell lines after 680C91; format: cell-based, mouse; settings: APC-KO vs APC-WT MC38, dose-dependent, 48 hr
[6] = system: APC deficient cell lines; assay: Crystal violet staining after 680C91 treatment, APC deficient cell lines; format: cell-based, human; settings: 680C91 dose-dependent, 48 hr
[7] = system: iKAP cell lysates; assay: Cleaved Caspase-3 immunoblot in iKAP cells, 680C91 alone and 680C91/Kyn; format: cell-based, mouse; settings: 680C91/Kyn vs 680C91 alone
Experimental: as §3, §4, §5

[8] = system: BMDM; assay: RT-qPCR of M2 macrophage signature genes in BMDM; format: cell-based, mouse; settings: CXCL5 50 ng, Kyn 1 mM, 24 hr
Experimental: Scale bars, 50μm. […] Scale bars, 100 μm. […] (isTDO2 and isTDO2/shCXCL5 #2 groups, n=7, isTDO2/shCXCL5 #3, n=8). ****P<0.0001. two-tailed t-test. […] (shControl and shCXCL5 #2 groups, n=7, shCXCL5 #3, n=8). ****P<0.0001. two-tailed t-test.
(§7) RNA was isolated from cells using Trizol (Invitrogen) following the manufacturer's instructions. RNA (200-500 ng) was first treated with RNase-free DNase I using the DNA-free kit (Ambion) to remove all genomic DNA, and then reverse-transcribed into cDNA using an ABI High Capacity cDNA RT Kit (Invitrogen). The cDNA was analyzed using real-time quantitative PCR (SYBR Green, Invitrogen) with an Applied Biosystems 7900 Sequence Detection System. Each reaction was performed in triplicate. The expression of each gene was normalized by that of mouse Actin or human GAPDH.

[9] = system: BMDM; assay: RT-qPCR analysis of Gas6 expression in BMDM; format: cell-based, mouse; settings: Kyn 1 mM, CXCL5 50 ng, Gas6 25 ng, 24 hr
Experimental: (§8) The red box indicates Axl. […] Six replicates per group. two-tailed t-test. *P<0.05. […] Epithelial cells are stained with EpCam and indicated by GFP. X63 magnification. […] Total flux measurement of at the end point. **P<0.01. two-tailed t-test. […] Total flux measurement of tumors was done at the end point. **P<0.01. two-tailed t-test.
To evaluate whether secreted factors from cancer cells might upregulate Gas6 expression in macrophages, BMDMs were incubated with conditioned media from MC38 cell lines. […] (FIG. 15H). Finally, to validate the roles of Gas6 in promoting tumor growth in vivo, CT26 cell lines and two independent Raw 264.7 shGas6 cell lines were co-injected into syngeneic Balb/CJ mice (FIG. 15I).
as §7

[10] = system: APC-KO MC38 cells; assay: Colony formation assay of TDO2- or AhR-depleted cells with Kyn; format: cell-based, mouse; settings: Dox/Kyn co-treatment
Experimental: as §3, §4, §6

[11] = system: Raw264.7; assay: Transwell migration assay of macrophages in conditioned media; format: cell-based, mouse; settings: co-treatment with CXCL5; SX-682 1 μM, 36 hr
Experimental: Two-way ANOVA analysis. […] Dox food was applied at day 5 post-orthotopic injection to induce TDO2 knockdown in vivo. n=4 per group. n.s.P>0.05, *P<0.05, […], ****P<0.0001. two-tailed t-test. […] FIGS. 12D and 12E show quantification of macrophages (F4/80+; FIG. 12D) and M2 macrophages (CD206+; FIG. 12E) in tumors shown in FIG. 12C. CyTOF data analyzed by FlowJo. Data represent mean±s.d., n=3 per group. *P<0.05, **P<0.01. two-tailed t-test. […] Recombinant CXCL5 protein (50 ng) and SX-682 (1 μM) were added to harvested condition media for 36 hr. Scale bar, 100 μm. n=3 biological replicates. Quantification is shown in lower panel. n.s. P>0.05, ***P<0.001, ****P<0.0001. two-tailed t-test. […] Clondronate liposomes or control encapsome liposomes were given intraperitoneally (100 μl) at day 2 post-orthotopic injection and three times a week. […]
Macrophages (1×10^4 for Raw264.7 and BMDM) were suspended in serum-free culture medium and seeded into 24-well Transwell inserts ([…]). […] After 24 h, the migrated macrophages were fixed and stained with crystal violet (0.05%, sigma), and then counted as cells per field of view under microscope or measured as OD590 nm (expressed as migration index) after crystal violet was dissolved.

[12] = system: APC-WT and APC-KO MC38 cells; assay: Cell viability assay with STF-31; format: cell-based, mouse; settings: STF-31 24 hr, dose-dependent
[13] = system: LS180 and HT-29 cell lines; assay: Colony formation assay with Gas6 and R428; format: cell-based, human; settings: Gas6 25 ng, 36 hr
Text: as §8
(§9) Gas6 is a ligand of Axl and is secreted mainly by tumor-associated macrophages in the TME (Loges et al., 2010), raising the possibility that macrophage-derived Gas6 might activate Axl to support the growth of APC-deficient cancer cells.
as §6

[14] = target: T1, Axl (Mus musculus, UniProt Q00993); assay: Immunoblots for Axl and phospho-Axl; format: cell-based; settings: APC-WT and APC-KO MC38 cells; R428 0.2 μM 24 h; rmGAS6 24 h
T1 construct: immunoblots for Axl and phospho-Axl in APC-WT and APC-KO MC38 cells after R428 treatment (0.2 μM, 24 h); endogenous in cells; host or cells: MC38 mouse colorectal cancer cells, APC-WT and isogenic APC-KO
T1 sequence (Q00993 19-888): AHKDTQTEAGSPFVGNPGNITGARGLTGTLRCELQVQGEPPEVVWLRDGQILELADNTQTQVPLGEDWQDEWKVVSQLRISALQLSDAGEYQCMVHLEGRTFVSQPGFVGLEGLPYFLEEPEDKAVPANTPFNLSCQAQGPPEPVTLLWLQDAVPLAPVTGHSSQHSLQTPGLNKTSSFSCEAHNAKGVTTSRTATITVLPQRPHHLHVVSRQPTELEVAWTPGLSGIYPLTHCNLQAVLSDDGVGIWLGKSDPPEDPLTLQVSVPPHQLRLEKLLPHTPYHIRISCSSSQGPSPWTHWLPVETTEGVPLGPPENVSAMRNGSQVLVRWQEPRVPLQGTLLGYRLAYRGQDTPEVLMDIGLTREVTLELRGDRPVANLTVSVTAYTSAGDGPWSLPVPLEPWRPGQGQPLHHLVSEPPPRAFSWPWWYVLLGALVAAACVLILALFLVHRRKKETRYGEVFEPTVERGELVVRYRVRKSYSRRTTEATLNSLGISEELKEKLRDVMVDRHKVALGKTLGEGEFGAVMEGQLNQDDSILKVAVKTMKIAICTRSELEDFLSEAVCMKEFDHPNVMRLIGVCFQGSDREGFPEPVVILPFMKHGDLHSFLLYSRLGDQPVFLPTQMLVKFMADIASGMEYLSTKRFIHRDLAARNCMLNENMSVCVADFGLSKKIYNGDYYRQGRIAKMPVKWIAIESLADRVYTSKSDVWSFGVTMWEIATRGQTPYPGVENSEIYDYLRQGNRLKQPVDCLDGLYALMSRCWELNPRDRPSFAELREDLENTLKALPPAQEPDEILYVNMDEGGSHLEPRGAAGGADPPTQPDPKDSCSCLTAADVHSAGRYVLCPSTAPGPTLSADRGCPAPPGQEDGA
Text: as §8, §9, §5

[15] = system: Caco-2, DLD-1, and HCT-15 cell lines; assay: Immunoblot for TDO2 and β-catenin in CRC cell lines treated with XAV-939; format: cell-based, human; settings: XAV-939 in a dose-dependent manner; WNT activity indicated by reduced level of β-catenin
Experimental: The motif sequence is conserved in human and mouse genes. […] GAPDH as a negative control and MYC and AXIN2 as positive controls. […] FIGS. 3K-3M show immunoblot for TDO2 and β-catenin in DLD-1 cells (FIG. 3K), Caco-2 cells (FIG. 3L), and HCT-15 cells (FIG. 3M) treated with XAV-939 in a dose-dependent manner.
Thus, APC loss induced activation of the WNT-betacatenin-TCF4 pathway resulting in TCF4-mediated upregulation of TDO2 gene transcription.
as §5

## NS(=O)(=O)NCCNc1nonc1C(=NO)Nc1ccc(F)c(Br)c1 [Epacadostat]
[1]
  survival of mice bearing APC-WT MC38 tumors: did not exhibit anti-tumor effects
[2]
  survival of mice bearing APC-KO MC38 tumors: did not exhibit anti-tumor effects

## Fc1ccc2c(/C=C/c3cccnc3)c[nH]c2c1 [680C91]
[3]
  growth and survival: but not APC intact cells
[4]; 680C91 alone
  cell death indicated by caspase-3 assay: increased cell death
[5]
  sensitivity of APC depleted cells to TDO2 inhibition: higher sensitivity to TDO2 inhibition
[6]
  growth and survival: impaired the growth and survival

## Nc1ccccc1C(=O)CC(N)C(=O)O (centres unmarked) [Kyn, kynurenine]
[7]
  cell death in iKAP model system: decreased cell death
[4]; 680C91/Kyn co-treatment
  effect of Kyn on 680C91-induced cell death: rescued by Kyn supplementation
[8]
  M2 macrophage markers: M2 macrophage markers increased
[9]
  Gas6 expression: increased Gas6 expression
[10]
  effect of Kyn on reduced colony formation after TDO2 and AhR depletion: rescued by Kyn treatment

## O=C(Nc1ccc(F)cc1)c1cnc(SCc2cc(OC(F)(F)F)ccc2B(O)O)nc1 [CXCR1/2 inhibitor]
[11]
  effect on CXCL5 rescue of macrophage recruitment: abrogated the rescue by CXCL5 supplementation

## CC(C)(C)c1ccc(S(=O)(=O)NCc2ccc(C(=O)Nc3cccnc3)cc2)cc1 [STF-31]
[12]
  sensitivity of APC-KO vs APC-WT MC38 cells: higher sensitivity

## rmGas6: mouse recombinant Gas6, ligand of Axl
[13]
  cancer cell growth in vitro: promoted cancer cell growth
[9]
  Gas6 expression: increased Gas6 expression
[14]
  Axl phosphorylation: activated Axl

## Oc1nc(-c2ccc(C(F)(F)F)cc2)nc2c1CSCC2 [XAV-939]
[15]
  TDO2 expression: TDO2 expression was decreased

Reference: patent US20230250433A1, “METHODS AND COMPOSITIONS FOR TREATMENT OF APC-DEFICIENT CANCER” (Board of Regents, The University of Texas System, priority 2020, published 2023)
